Paper PMC7804942, “The amphibian peptide Yodha is virucidal for Zika and dengue viruses” (Scientific Reports, 2021)
Where a SMILES comes first, the peptide text is derived from it.

Experiments:
human red blood cells = assay type: cell-based
Protocol: Single donor human red blood cells (Innovative Research) were washed in PBS (pH 7.4) with three times centrifugation at 500 × g for 5 min. Serially diluted frog peptides or OVA control peptide were prepared in V-bottom 96 well plates and mixed with washed 2 × 10^7 human RBC per each well for 1 h at 37 °C. PBS solution was used as a negative control (0% lysis), and 0.1% Triton X-100 in PBS was used as 100% lysis. The plates were centrifuged at 300 × g at 4 °C for 5 min to pellet the intact RBCs and supernatant of each well was measured by absorbance at 450 nm.

ZIKV = assay: Post-infection treatment of ZIKV-infected Vero cells, FFU assay of supernatants; assay type: cell-based, Zika virus; conditions: 40 µM peptide added after infection, FFU of supernatant
Protocol: Next, we determined whether the observed Yodha peptide-induced decrease in viral titers was due to blocked viral entry. We reasoned that if the peptide directly kills or disrupts the envelope structure of ZIKV, this would prevent virus entry. To test this, we designed an experiment to measure virus entry, by allowing ZIKV to bind cells at 4 °C for 1 h followed by shifting the cells to 37 °C to permit virus entry (Fig. 2A). It has been shown that DENV2 entry occurs within 25 min by early endosome trafficking. Briefly, we exposed ZIKV to Yodha peptide and then allowed the virus to infect Vero cells for 30 min. We then measured viral RNA within the Vero cells by quantitative Real Time-PCR (qRT-PCR) (Fig. 2B). […] Next, we visualized ZIKV entry or lack thereof by immunofluorescence using antibodies against pan flavivirus E protein. […] We collected culture supernatants at 3, 24, 48, and 72 h after ZIKV infection to quantitate ZIKV by FFU assay (Fig. 2E). ZIKV was not detected at 3 h post-infection in both OVA- or Yodha-treated cells. […]
Figure 2 Yodha peptide inhibits ZIKV entry into cells. […] (B) ZIKV was treated with 200 µM of Yodha or control OVA peptide for 30 min and then used to infect Vero cells at a MOI of 0.5 and expression of ZIKV RNA was determined by quantitative RT-PCR (qRT-PCR). […] Error bars indicate the SEM of four technical replicates statistical significance was assessed by a 2-way ANOVA.

MR766 ZIKV strain = assay: ZIKV MR766 infection of IFNAR KO mice, morbidity; assay type: in vivo, mouse; conditions: MR766, peptide-treated vs control group
Protocol: To assess morbidity, we switched to IFNAR KO mice and infected them with the MR766 ZIKV strain.
All mouse studies were approved by the IACUC of Emory University. C57BL/6 mice were purchased from The Jackson Laboratory. All mice were maintained in specified pathogen-free in accordance with the institutional guidelines of Emory University’s Animal Care and Use Committee. All control and experimental mice were age- and sex-matched. For viral titer assessment, Wild-type C57BL/6 J mice were injected with 2 mg of an anti-Ifnar1 blocking antibody (MAR1-5A3) by the intraperitoneal route 24hrs prior to infection. Mice were anesthetized with isoflurane and inoculated by the subcutaneous route into both rear footpads with 5 × 10^4 PFU of ZIKV PRVABC59 (1 × 10^5 PFU total inoculum per mouse) in a 20µL inoculum diluted in Hanks balanced salt solution (HBSS) supplemented with 1% heat-inactivated FBS. For analysis of morbidity by ZIKV viral infection, we infected 5- to 6-week-old IFNAR KO mice with ZIKV MR766 (100 PFU total inoculum per mouse). Mice were monitored daily for morbidity and mortality.

DENV1 = assay: Focus forming assay, dengue virus; assay type: cell-based; conditions: 50 µM peptide, FFA
Protocol: (§1) Dengue virus strains 1, 2, 3 and 4 were treated with wither Yodha or control OVA peptide at (A) 50 µM (B) 160 µM concentration and the % of viral focus forming units were determined. (C) IC50 measurement of Yodha in DENVs infection by FFA. […] OVA peptide was used a negative control.
(§2) Peptides were incubated with ZIKV (100 FFU/well) for 2 h at 37 °C. This incubated mixture was used to infect Vero cells for 1.5 h at 37 °C. Cells and inoculum were overlaid with 2% methylcellulose solution (OptiMEM; Gibco) and incubated for 72 h at 37 °C. Cells were washed with PBS and fixed with a 1:1 methanol/acetone mixture for 30 min. Cells were blocked with 5% milk/PSB at room temperature for 20 min and incubated with primary antibody (anti-flavivirus mouse 4G2[10] antibody) for 2 h at 37 °C. Then, cells were incubated with secondary antibody (HRP-conjugated goat anti-mouse IgG, Cell Signaling) for 1 h at 37 °C. Cells were developed with TrueBlue Peroxidase Substrate (KPL). Plates were read on a CTL-ImmunoSpot S6 Micro analyzer.

DENV2 = assay: Focus forming assay, dengue virus; assay type: cell-based; conditions: 50 µM peptide, FFA
Protocol: as §1, §2

DENV4 = assay: Focus forming assay, dengue virus; assay type: cell-based; conditions: 50 µM peptide, FFA
Protocol: as §1, §2

## CC[C@H](C)[C@H](NC(=O)[C@@H](NC(=O)CNC(=O)[C@H](CC(C)C)NC(=O)[C@H](Cc1ccccc1)NC(=O)[C@H](Cc1ccccc1)NC(=O)[C@H](CC(C)C)NC(=O)[C@H](CC(C)C)NC(=O)[C@H](CC(C)C)NC(=O)[C@H](CCSC)NC(=O)[C@@H](N)CO)[C@@H](C)O)C(=O)N[C@@H](CO)C(=O)N[C@@H](CC(C)C)C(=O)N[C@@H](CO)C(=O)N[C@@H](CC(C)C)C(=O)N[C@@H](CS)C(=O)N[C@@H](CCC(N)=O)C(=O)N[C@@H](CC(=O)O)C(=O)N[C@@H](CC(=O)O)C(=O)N[C@@H](CCC(N)=O)C(=O)N[C@@H](CCC(=O)O)C(=O)N[C@@H](CCCNC(=N)N)C(=O)N[C@@H](CS)C(=O)O [Yodha] (H-SMLLLFFLGTISLSLCQDDQERC-OH; N-terminus and C-terminus assumed)
Human red blood cells
  cytotoxicity against human erythrocytes (screen of the 12 hits): no cytotoxicity
ZIKV; 48 h post-infection
  reduction in ZIKV production: 60–70%
ZIKV; 72 h post-infection
  reduction in ZIKV production: 60–70%
MR766 ZIKV strain
  weight changes: did not observe any differences
MR766 ZIKV strain; data not shown
  survival: did not observe any differences
DENV1
  inhibition of DENV1: efficiently inhibited
DENV2
  inhibition of DENV2: efficiently inhibited
DENV4
  inhibition of DENV4: efficiently inhibited
